54 molecules from the C3SDB collision cross section collection can be followed below.

Each structure is given as a SMILES string. Counter-ions that a name gives are not always drawn.

The conditions of this data set: instrument: DT, single field, calibrated with Agilent tune mix (Agilent).

On to `NC(N)=NCCCC(=O)O` [4-Guanidinobutyric acid], for which the “collision cross section (N2)” value ([M+H]+) came to 129.7 Å².

Consider `O=C(O)c1ccc([O-])cc1` [4-Hydroxybenzoate], for which the “collision cross section (N2)” value reads like this: ([M+H-H2O]+) 119 Å²; ([M-H]-) 119.33 Å².

For `COc1ccc(CC(=O)O)cc1` [4-Methoxyphenylacetic acid], where the note is “[M+H]+”, the “collision cross section (N2)” value is listed as 137.4 Å².

For the molecule `Nc1nc(=O)c2c([nH]1)NCC1CN(c3ccc(C(=O)NC(CCC(=O)O)C(=O)O)cc3)CN21` (stereo not given) [5,10-methylene-THF], the “collision cross section (N2)” value ([M-H]-) is 192.06 Å².

Regarding `N[C@@H](Cc1c[nH]c2ccc(O)cc12)C(=O)O` [5-Hydroxy-L-tryptophan], the “collision cross section (N2)” value was 152.2 Å² ([M+Na]+) and 148.86 Å² ([M-H]-).

Take `O=C(O)c1ccc(=O)[nH]c1` [6-Hydroxynicotinic acid]: the “collision cross section (N2)” value ([M+H]+) is 129.5 Å² and the “collision cross section (N2)” value ([M-H]-) was 118.52 Å².

`O=C(O)[C@H](O)[C@@H](O)[C@H](O)[C@H](O)COP(=O)(O)O` [6-Phospho-D-gluconate]: the “collision cross section (N2)” value ([M+Na]+) is reported as 157.3 Å².

`C[C@H](O)[C@H](O)C1=Nc2c([nH]c(N)nc2=O)NC1` [7,8-Dihydrobiopterin]: the “collision cross section (N2)” value ([M+H]+) worked out at 154.1 Å².

`Cn1c(=O)[nH]c2[nH]c(=O)[nH]c(=O)c21` [7-Methyluric acid]: under “[M-H]-”, the “collision cross section (N2)” value is given as 129.35 Å².

Turning to `CC1=C(/C=C/C(C)=C\C=C\C(C)=C\C=O)C(C)(C)CCC1` [9-cis-Retinal], the “collision cross section (N2)” value ([M+H]+) turned out to be 170.1 Å².

For `CC1=C(/C=C/C(C)=C\C=C\C(C)=C\C(=O)O)C(C)(C)CCC1` [9-cis-Retinoic acid], the “collision cross section (N2)” value ([M+H-H2O]+) amounted to 169.6 Å² and the “collision cross section (N2)” value ([M-H]-) is 200.01 Å².

Regarding `CC12CCC(=O)C=C1CCC1C2CCC2(C)C(C(=O)CO)CCC12` (stereo not given) [11-Deoxycorticosterone], the “collision cross section (N2)” value is, setting by setting: ([M+H]+) 186.5 Å²; ([M-H]-) 184.42 Å².

For `C[C@]12CC[C@H]3[C@@H](CC=C4C[C@@H](O)CC[C@@]43C)[C@@H]1CC[C@@H]2C(=O)CO` [21-Hydroxypregnenolone], the “collision cross section (N2)” value is on record as 178.4 Å² ([M+H-H2O]+) and 185.89 Å² ([M-H]-).

For the molecule `CC(C)CC[C@@H](O)[C@@H](C)[C@H]1CC[C@H]2[C@@H]3CC=C4C[C@@H](O)CC[C@]4(C)[C@H]3CC[C@]12C` [22beta-Hydroxycholesterol], the “collision cross section (N2)” value was 205.2 Å² ([M+H-H2O]+) and 217.74 Å² ([M-H]-).

Regarding `C=C1CC[C@H](O)C/C1=C/C=C1\CCC[C@]2(C)[C@@H]([C@H](C)CCCC(C)(C)O)CC[C@@H]12` [25-hydroxyvitamin D3], where the note is “[M-H]-”, the “collision cross section (N2)” value is recorded as 200.06 Å².

As to `Nc1ncnc2c1ncn2[C@@H]1O[C@H](COP(=O)(O)OP(=O)(O)OC[C@@H](O)[C@@H](O)[C@@H](O)C=O)[C@@H](O)[C@H]1O` [ADP Ribose], the “collision cross section (N2)” value ([M+H]+) is reported as 211.4 Å².

`CC(=O)CC(=O)SCCNC(=O)CCNC(=O)[C@H](O)C(C)(C)COP(=O)(O)OP(=O)(O)OC[C@H]1O[C@@H](n2cnc3c(N)ncnc32)[C@H](O)[C@@H]1OP(=O)(O)O` [Acetoacetyl coenzyme A]: the “collision cross section (N2)” value amounted to 247.8 Å² ([M+H]+) and 252.94 Å² ([M-H]-).

On to `CC(=O)Oc1cc(C)c(OC(C)=O)c2ccccc12` [Acetomenaphthone], for which the “collision cross section (N2)” value ([M+Na]+) turned out to be 157.2 Å².

For the molecule `CC(=O)OCC[N+](C)(C)C` [Acetylcholine], the “collision cross section (N2)” value ([M+H]+) turned out to be 129.7 Å².

With `Nc1ncnc2c1ncn2[C@@H]1O[C@H](COP(=O)(O)OP(=O)(O)O)[C@@H](O)[C@H]1O` [Adenosine 5'-diphosphate], the “collision cross section (N2)” value ([M+H]+) worked out at 186.1 Å².

As to `Nc1ncnc2c1ncn2[C@@H]1O[C@H](COP(=O)(O)OS(=O)(=O)O)[C@@H](O)[C@H]1O` [Adenosine 5'-phosphosulfate], the “collision cross section (N2)” value runs as follows: ([M+Na]+) 190.4 Å²; ([M-H]-) 180.48 Å².

Consider `Nc1ccccc1C(=O)O` [Anthranilic acid], for which the “collision cross section (N2)” value is, setting by setting: ([M+H-H2O]+) 118.8 Å²; ([M-H]-) 123.99 Å².

Take `CCCCCCCCCCCCCCCCCCCC(=O)O` [Arachidic acid]: the “collision cross section (N2)” value ([M-H]-) was 183.41 Å².

For the molecule `CCCCC/C=C\C/C=C\C/C=C\C/C=C\CCCC(=O)O` [Arachidonic Acid], the “collision cross section (N2)” value ([M-H]-) is recorded as 178.94 Å².

As to `CCCCCCCCCCCCCCCCCCCCCC(=O)O` [Behenic acid], the “collision cross section (N2)” value ([M-H]-) amounted to 191.18 Å².

With `O=C(O)c1ccccc1` [Benzoic acid], the “collision cross section (N2)” value ([M-H]-) came to 121.84 Å².

As to `O=P(O)(O)O[C@]1(CO)O[C@H](CO)[C@@H](O)[C@@H]1O` [Beta-D-Fructose 2-phosphate], the “collision cross section (N2)” value is, setting by setting: ([M+Na]+) 154 Å²; ([M-H]-) 141.51 Å².

Regarding `O=P(O)(O)OC[C@H]1O[C@](O)(CO)[C@@H](O)[C@@H]1O` [Beta-D-Fructose 6-phosphate], the “collision cross section (N2)” value by setting is: ([M+H]+) 149.3 Å²; ([M-H]-) 141.02 Å².

For `C[N+](C)(C)CC=O` [Betaine aldehyde], under “[M+H]+”, the “collision cross section (N2)” value is reported as 117.2 Å².

With `CCCC(=O)SCCNC(=O)CCNC(=O)[C@H](O)C(C)(C)COP(=O)(O)OP(=O)(O)OC[C@H]1O[C@@H](n2cnc3c(N)ncnc32)[C@H](O)[C@@H]1OP(=O)(O)O` [Butyryl-CoA], the “collision cross section (N2)” value ([M+H]+) came out at 252.9 Å².

With `CCCC(=O)SCCNC(=O)CCNC(=O)[C@H](O)C(C)(C)COP(=O)(O)OP(=O)(O)OC[C@H]1O[C@@H](n2cnc3c(N)ncnc32)[C@H](O)[C@@H]1OP(=O)(O)O` [Butyryl-coenzyme A], the “collision cross section (N2)” value ([M-H]-) was 253.26 Å².

For `CC(C)CCC[C@@H](C)[C@H]1CC[C@H]2[C@@H]3CC=C4C[C@@H](OS(=O)(=O)O)CC[C@]4(C)[C@H]3CC[C@]12C` [Cholesteryl sulfate], under “[M-H]-”, the “collision cross section (N2)” value was 237.01 Å².

Take `CC1=C(CCC(=O)O)c2cc3nc(cc4[nH]c(cc5[nH]c(cc1n2)c(C)c5CCC(=O)O)c(CCC(=O)O)c4C)C(CCC(=O)O)=C3C` [Coproporphyrin III]: the “collision cross section (N2)” value ([M+H]+) is 257.2 Å² and the “collision cross section (N2)” value ([M-H]-) came out at 271.13 Å².

For `N[C@@H](CS)C(=O)NCC(=O)O` [Cysteinylglycine], the “collision cross section (N2)” value ([M-H]-) amounted to 131.77 Å².

Consider `Nc1ccn([C@@H]2O[C@H](COP(=O)(O)O)[C@@H](O)[C@H]2O)c(=O)n1` [Cytidine 5'-monophosphate], for which, for the setting “[M+H]+”, the “collision cross section (N2)” value worked out at 166.3 Å².

With `Nc1ccn([C@@H]2O[C@H](COP(=O)(O)OP(=O)(O)OP(=O)(O)O)[C@@H](O)[C@H]2O)c(=O)n1` [Cytidine triphosphate], where the note is “[M-H]-”, the “collision cross section (N2)” value amounted to 179.08 Å².

For `C[C@@H](N)C(=O)N[C@H](C)C(=O)O` [D-Ala-D-Ala], the “collision cross section (N2)” value ([M+Na]+) was found to be 142.8 Å².

Regarding `C[C@@H](N)C(=O)N[C@H](C)C(=O)O` [D-Alanyl-D-alanine], the “collision cross section (N2)” value ([M-H]-) is given as 134.05 Å².

In the case of `OC[C@H]1OC(O)[C@H](O)[C@H](O)[C@@H]1O` (stereo partly drawn) [D-Allose], the “collision cross section (N2)” value ([M+Na]+) was 143.1 Å².

Regarding `O=C(O)[C@@H](O)[C@H](O)[C@H](O)[C@@H](O)C(=O)O` [D-Galactarate], the “collision cross section (N2)” value reads like this: ([M+Na]+) 147.3 Å²; ([M-H]-) 130.24 Å².

On to `O=C1O[C@H](CO)[C@@H](O)[C@H](O)[C@H]1O` [D-Glucono-1,5-lactone], for which, for the setting “[M-H]-”, the “collision cross section (N2)” value is recorded as 130.59 Å².

For the molecule `OC[C@@H](O)[C@@H](O)[C@H](O)[C@H](O)CO` [D-Mannitol], the “collision cross section (N2)” value ([M+Na]+) came out at 141 Å².

For `O=P(O)(O)OC1O[C@H](CO)[C@@H](O)[C@H](O)[C@@H]1O` (stereo partly drawn) [D-Mannose 1-phosphate], the “collision cross section (N2)” value came to 158.3 Å² ([M+Na]+) and 143.99 Å² ([M-H]-).

For `O=C(O)[C@H]1CCCN1` [D-Proline], the “collision cross section (N2)” value is, setting by setting: ([M+H]+) 125 Å²; ([M-H]-) 122.49 Å².

As for `O=C(COP(=O)(O)O)[C@H](O)[C@H](O)COP(=O)(O)O` [D-Ribulose 1,5-bisphosphate], the “collision cross section (N2)” value is 150.9 Å² ([M+Na-2H]-) and 163.3 Å² ([M+Na]+).

In the case of `OC1OC[C@@H](O)[C@H](O)[C@H]1O` (stereo partly drawn) [D-Xylose], where the note is “[M+Na]+”, the “collision cross section (N2)” value was determined as 134.6 Å².

For `Nc1ncnc2c1ncn2[C@H]1C[C@H](O)[C@@H](CO)O1` [Deoxyadenosine], the “collision cross section (N2)” value ([M+H]+) is 152.3 Å² and the “collision cross section (N2)” value ([M-H]-) came out at 152.2 Å².

On to `O=c1nc[nH]c2c1ncn2[C@H]1C[C@H](O)[C@@H](CO)O1` [Deoxyinosine], for which the “collision cross section (N2)” value is, setting by setting: ([M+H]+) 151.7 Å²; ([M-H]-) 153.4 Å².

With `O=P(O)(O)OC[C@H]1O[C@@H](O)C[C@@H]1O` [Deoxyribose 5-phosphate], the “collision cross section (N2)” value ([M+Na]+) is 148.4 Å².

With `CC(C)(COP(=O)(O)OP(=O)(O)OC[C@H]1O[C@@H](n2cnc3c(N)ncnc32)[C@H](O)[C@@H]1O)[C@@H](O)C(=O)NCCC(=O)NCCS` [Dephosphocoenzyme A], the “collision cross section (N2)” value ([M+H]+) came to 238.6 Å² and the “collision cross section (N2)” value ([M-H]-) was 232.51 Å².

`CC(C)[C@@H](C)/C=C/[C@@H](C)[C@H]1CC[C@H]2/C(=C/C=C3\C[C@@H](O)CC[C@@H]3C)CCC[C@]12C` [Dihydrotachysterol]: the “collision cross section (N2)” value ([M+H]+) was found to be 205.8 Å².

Take `CC(C)=CCOP(=O)(O)OP(=O)(O)O` [Dimethylallyl pyrophosphate]: the “collision cross section (N2)” value ([M-H]-) worked out at 143.1 Å².

As for `OC[C@@H](O)[C@H](O)[C@H](O)[C@@H](O)CO` [Dulcitol], the “collision cross section (N2)” value is, setting by setting: ([M+Na]+) 141.7 Å²; ([M-H]-) 128.77 Å².

As for `CC/C=C\C/C=C\C/C=C\C/C=C\C/C=C\CCCC(=O)O` [Eicosapentaenoic acid], where the note is “[M-H]-”, the “collision cross section (N2)” value is 178.53 Å².
